The test system of test [1] is Streptococcus sp. 'group A'. As to the kind of experiment: Streptococcus pyogenes SK(-)GAS viability under kanamycin – luminescence, BacTiterGlo, confirmation, counter-screen for streptokinase expression inhibitor project, dose response (AID 1900). The test is classed as functional, organism-based. A general note: A counterscreen serves to expose hits that act by an unwanted route or on another target.

A further test deals with T1, Streptokinase A (Streptococcus pyogenes serotype M1, UniProt P10520).
T1 sequence (P10520 whole entry): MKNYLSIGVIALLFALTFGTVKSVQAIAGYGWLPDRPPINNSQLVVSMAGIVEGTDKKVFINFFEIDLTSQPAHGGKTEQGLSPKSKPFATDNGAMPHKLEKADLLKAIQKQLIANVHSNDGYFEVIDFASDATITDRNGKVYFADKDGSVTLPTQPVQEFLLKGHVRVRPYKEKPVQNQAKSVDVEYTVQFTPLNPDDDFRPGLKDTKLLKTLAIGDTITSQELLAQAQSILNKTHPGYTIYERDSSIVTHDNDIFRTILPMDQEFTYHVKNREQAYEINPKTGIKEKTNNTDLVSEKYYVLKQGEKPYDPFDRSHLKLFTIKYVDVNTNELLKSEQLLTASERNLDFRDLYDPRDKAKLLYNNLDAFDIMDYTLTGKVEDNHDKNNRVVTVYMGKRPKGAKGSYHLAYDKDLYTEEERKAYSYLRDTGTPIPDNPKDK
As to the kind of experiment: viability-normalized secreted streptokinase activity reduction – plasminogen activation absorbance, OD405, dose response (AID 1914).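 Also: secreted streptokinase activity via plasminogen activation per viability signal from cell pellet.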 The test is classed as functional, Streptococcus pyogenes M1 GAS.

The subject of a further test is Streptococcus. In words: GAS UMAA2166 growth inhibition – luminescence, BacTiterGlo, counter-screen for streptokinase expression inhibitor project, dose response (AID 1915).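 Also: potency for reduction of bacterial viability or growth.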 The test is classed as functional, organism-based.
The target in test [2] is T2, Microphthalmia-associated transcription factor (Homo sapiens, UniProt O75030).
T2 sequence (O75030 whole entry): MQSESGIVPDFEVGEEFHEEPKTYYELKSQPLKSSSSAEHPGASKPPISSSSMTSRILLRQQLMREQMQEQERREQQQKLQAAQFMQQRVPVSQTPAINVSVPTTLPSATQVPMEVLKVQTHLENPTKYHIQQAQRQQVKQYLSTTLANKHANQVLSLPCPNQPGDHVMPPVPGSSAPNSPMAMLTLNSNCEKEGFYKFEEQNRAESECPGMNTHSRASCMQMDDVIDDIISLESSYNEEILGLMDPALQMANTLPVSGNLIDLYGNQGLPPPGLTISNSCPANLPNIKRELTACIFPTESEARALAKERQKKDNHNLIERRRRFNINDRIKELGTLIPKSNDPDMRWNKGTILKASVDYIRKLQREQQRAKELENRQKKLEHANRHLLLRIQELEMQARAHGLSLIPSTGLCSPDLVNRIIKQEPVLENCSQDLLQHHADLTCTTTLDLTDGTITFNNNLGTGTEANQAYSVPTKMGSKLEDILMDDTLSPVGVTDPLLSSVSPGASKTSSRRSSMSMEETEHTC
In words: reducers of TRPM1 reporter luminescence, concentration series – cell-based, SK-MEL-5, cherry-picked, set 3, MITF inhibitor project, dose response (AID 493073).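 Also: SK-MEL-5 melanoma cells with luciferase driven by the MITF target TRPM1 promoter.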 The test is classed as functional.

The target of test [3] is T3, Apoptotic protease-activating factor 1 (Homo sapiens, UniProt O14727).
T3 sequence (O14727 whole entry): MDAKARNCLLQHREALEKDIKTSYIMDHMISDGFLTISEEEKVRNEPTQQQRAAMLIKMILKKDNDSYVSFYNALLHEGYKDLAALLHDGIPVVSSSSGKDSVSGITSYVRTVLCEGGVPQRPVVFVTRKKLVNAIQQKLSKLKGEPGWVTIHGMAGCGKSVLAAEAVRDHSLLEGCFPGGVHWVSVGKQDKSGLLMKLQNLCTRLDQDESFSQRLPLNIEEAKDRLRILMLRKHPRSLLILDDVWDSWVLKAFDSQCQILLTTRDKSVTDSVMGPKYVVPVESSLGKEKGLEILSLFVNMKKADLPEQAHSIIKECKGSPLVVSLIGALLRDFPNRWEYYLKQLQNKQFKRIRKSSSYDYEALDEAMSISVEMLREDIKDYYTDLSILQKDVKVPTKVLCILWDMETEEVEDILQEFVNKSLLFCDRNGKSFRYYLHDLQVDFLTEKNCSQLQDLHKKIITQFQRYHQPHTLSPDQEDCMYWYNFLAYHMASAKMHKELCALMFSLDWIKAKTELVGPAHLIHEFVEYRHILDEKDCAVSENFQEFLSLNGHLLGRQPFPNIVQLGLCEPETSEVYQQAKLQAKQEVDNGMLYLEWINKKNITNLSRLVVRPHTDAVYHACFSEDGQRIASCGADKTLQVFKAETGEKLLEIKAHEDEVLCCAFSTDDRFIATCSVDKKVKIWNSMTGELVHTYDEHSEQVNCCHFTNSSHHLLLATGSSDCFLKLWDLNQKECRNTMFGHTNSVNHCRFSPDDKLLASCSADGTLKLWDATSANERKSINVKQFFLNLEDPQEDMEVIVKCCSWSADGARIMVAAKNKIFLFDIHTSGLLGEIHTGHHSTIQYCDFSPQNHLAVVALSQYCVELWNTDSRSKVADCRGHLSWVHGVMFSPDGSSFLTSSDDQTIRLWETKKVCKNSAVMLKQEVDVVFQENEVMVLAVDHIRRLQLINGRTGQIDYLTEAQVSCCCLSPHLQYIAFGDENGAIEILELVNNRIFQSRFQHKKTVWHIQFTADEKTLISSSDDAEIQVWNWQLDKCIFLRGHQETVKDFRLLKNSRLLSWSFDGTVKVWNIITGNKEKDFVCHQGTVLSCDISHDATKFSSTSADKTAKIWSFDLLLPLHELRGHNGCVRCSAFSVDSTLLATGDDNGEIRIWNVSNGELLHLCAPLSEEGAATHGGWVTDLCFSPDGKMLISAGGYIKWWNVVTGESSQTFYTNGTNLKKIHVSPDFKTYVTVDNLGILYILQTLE
The test is classed as functional.

A further test deals with INS1. In words: INS-1E survival protection against cytokine death – cell-based, luminescence, retest, dose response (AID 449756).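 Also: cell death triggered by IL-1 beta plus TNF-alpha plus IFN-gamma mixture; protective hits raise ATP signal compared with cytokine alone wells.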 The test is classed as functional. The note with it: Rattus norvegicus.
The nature of test [4]: Luminescence Cell-Based Dose Retest to Confirm Inhibitors of Cancer Stem Cells. [Related pubchem assays (depositor defined):AID2717, AID2721]. It is filed as functional. The note with it: Homo sapiens.
Test [5] has as its target Disintegrin and metalloproteinase domain-containing protein 17 (Homo sapiens, UniProt P78536). As to the kind of experiment: inhibition of ADAM17 substrate cleavage – biochemical, quenched FRET substrate, counter-screen for ADAM10 exosite inhibitor project, dose response (AID 743253).
The next test concerns the target T4, Caspase-6 (Homo sapiens, UniProt P55212).
T4 sequence (P55212 whole entry): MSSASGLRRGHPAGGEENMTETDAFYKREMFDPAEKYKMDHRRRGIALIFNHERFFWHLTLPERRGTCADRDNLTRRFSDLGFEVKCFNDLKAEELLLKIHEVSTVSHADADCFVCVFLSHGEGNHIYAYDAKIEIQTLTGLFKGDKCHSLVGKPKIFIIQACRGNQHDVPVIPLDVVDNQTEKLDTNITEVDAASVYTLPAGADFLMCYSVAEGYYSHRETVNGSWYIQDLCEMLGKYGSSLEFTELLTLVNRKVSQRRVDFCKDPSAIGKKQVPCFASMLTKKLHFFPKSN
In words: inhibition of CASP6 peptide cleavage – biochemical, VEID-R110 fluorescence, cherry-pick, dose response (AID 720632).

Test [6] addresses T5, Long-chain-fatty-acid--AMP ligase FadD28 (Mycobacterium tuberculosis, UniProt P9WQ59).
T5 sequence (P9WQ59 whole entry): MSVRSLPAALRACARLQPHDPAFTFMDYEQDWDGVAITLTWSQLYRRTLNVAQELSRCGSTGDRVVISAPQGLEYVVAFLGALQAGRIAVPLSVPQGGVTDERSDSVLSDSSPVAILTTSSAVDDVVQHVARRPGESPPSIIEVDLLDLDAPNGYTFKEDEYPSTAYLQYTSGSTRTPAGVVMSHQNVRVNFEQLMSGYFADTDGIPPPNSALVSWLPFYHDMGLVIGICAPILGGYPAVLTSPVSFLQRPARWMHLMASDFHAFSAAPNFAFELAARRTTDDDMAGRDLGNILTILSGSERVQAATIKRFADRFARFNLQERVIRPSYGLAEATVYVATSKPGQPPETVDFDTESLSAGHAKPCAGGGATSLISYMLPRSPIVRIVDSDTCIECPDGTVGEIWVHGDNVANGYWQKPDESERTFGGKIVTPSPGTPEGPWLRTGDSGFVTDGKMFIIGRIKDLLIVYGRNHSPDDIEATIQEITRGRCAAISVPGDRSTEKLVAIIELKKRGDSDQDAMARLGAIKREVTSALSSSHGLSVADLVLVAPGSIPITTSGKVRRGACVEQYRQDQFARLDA
As to the kind of experiment: Fluorescence polarization aasay to screen for inhibitors that compete for the binding of FadD28 to a bisubstrate Measured in Biochemical System Using Plate Reader - 2147-01_Inhibitor_Dose_CherryPick_Activity. The test is classed as functional, Mycobacterium tuberculosis H37Rv. (In general: Fluorescence polarisation rises when a labelled molecule tumbles more slowly, as on binding a larger partner.)

Test [7] addresses T6, DNA repair and recombination protein RAD54-like (Homo sapiens, UniProt Q92698).
T6 sequence (Q92698 whole entry): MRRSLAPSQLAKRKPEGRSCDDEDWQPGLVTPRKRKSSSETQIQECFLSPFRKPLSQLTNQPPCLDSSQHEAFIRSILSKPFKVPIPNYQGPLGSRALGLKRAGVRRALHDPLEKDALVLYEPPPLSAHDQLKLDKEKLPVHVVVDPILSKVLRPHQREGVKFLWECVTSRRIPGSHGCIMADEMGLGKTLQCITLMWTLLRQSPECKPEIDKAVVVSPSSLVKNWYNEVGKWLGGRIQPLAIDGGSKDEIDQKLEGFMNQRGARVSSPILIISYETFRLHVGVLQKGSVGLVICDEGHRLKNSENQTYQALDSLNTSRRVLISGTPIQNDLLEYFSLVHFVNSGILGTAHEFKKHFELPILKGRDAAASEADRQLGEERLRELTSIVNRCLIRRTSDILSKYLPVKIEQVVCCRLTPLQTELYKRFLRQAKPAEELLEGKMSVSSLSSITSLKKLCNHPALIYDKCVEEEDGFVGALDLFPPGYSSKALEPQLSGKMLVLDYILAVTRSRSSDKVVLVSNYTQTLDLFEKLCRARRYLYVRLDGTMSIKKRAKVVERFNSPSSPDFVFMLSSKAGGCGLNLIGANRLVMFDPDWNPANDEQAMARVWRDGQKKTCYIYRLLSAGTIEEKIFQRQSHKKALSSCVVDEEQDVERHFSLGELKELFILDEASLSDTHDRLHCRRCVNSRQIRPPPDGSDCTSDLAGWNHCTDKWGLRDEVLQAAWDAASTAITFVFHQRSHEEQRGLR
As to the kind of experiment: RAD54 Holliday junction migration blockers – biochemical, fluorescence, cherry-picked samples, dose series, confirmation (AID 651657). It is filed as functional.

Test [8] deals with T7, Ubiquitin-conjugating enzyme E2 N (Homo sapiens, UniProt P61088).
T7 sequence (P61088 whole entry): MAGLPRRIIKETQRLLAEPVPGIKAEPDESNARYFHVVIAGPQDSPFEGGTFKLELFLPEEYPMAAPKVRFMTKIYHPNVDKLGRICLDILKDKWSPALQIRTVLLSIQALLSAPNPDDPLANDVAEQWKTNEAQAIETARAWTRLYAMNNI
It is filed as functional.

SMILES strings stand for the structures. Active and inactive are the calls of the source.

Disintegrin and metalloproteinase domain-containing protein 17, sequence (P78536 whole entry, the tested form may be a part): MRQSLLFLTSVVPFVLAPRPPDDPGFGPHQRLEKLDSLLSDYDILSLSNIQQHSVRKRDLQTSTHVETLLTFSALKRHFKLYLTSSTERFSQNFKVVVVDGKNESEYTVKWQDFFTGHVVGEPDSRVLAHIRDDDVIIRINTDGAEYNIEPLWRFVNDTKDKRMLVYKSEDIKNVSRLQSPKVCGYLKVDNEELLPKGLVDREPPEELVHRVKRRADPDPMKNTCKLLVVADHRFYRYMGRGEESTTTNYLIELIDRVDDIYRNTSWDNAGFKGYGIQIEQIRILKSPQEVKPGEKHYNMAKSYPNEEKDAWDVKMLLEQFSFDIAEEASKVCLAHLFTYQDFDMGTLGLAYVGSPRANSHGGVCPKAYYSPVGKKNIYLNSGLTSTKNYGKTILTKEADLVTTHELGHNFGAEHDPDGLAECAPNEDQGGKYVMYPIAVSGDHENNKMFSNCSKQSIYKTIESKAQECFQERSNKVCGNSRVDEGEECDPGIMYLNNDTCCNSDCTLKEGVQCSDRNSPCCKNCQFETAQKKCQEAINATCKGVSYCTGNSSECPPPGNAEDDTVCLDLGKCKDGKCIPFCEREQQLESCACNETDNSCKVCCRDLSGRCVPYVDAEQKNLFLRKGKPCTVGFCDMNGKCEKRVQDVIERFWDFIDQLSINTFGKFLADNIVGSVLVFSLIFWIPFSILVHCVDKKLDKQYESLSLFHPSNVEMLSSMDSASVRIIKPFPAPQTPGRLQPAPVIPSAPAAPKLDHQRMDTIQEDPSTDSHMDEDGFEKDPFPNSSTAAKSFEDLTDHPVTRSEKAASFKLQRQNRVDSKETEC

Broadly, the EC50 is the concentration that produces a half-maximal response. What is called AC50 is the concentration at which the activity in the assay is half-maximal. A word on the IC50: it is the point on the concentration scale where inhibition reaches its midpoint. For `CCCCCn1cc[n+](C2=C([N-]S(=O)(=O)c3ccccc3)C(=O)c3ccccc3C2=O)c1`, the EC50 is 1.15 µM (active) in test [1], 3.69 µM (active) on Streptokinase A and 13.3 µM (active) in the test on Streptococcus. Besides, the AC50 in test [2] is 5.9 µM (active); with INS1 it was 4.7 µM (active). Moreover, the IC50 in [3] was 13.8 µM (active).
Regarding `O=C1CC(N(CCc2ccccc2)C(=S)Nc2cc(Cl)ccc2Cl)C(=O)N1c1c(Cl)cccc1Cl` (configuration not stated), the AC50 in [4] was 1.61 µM (active). Moreover, in [5], the IC50 was > 69.5 µM (inactive).
Regarding `CC(N)C(=O)NC(C(=O)NC(C)C(=O)Nc1cccc2ccccc12)C(C)C` (configuration not stated), the AC50 on Caspase-6 was 10.7 µM (active).
`Cc1nc2c(C(=O)NCCC3=CCCCC3)cnn2c(O)c1Cl`: in test [6], the AC50 is > 100 µM (inactive).
For the molecule `COc1cc(SC)ccc1C(=O)OC(C)C(=O)NC1CCCC1` (configuration not stated), the AC50 on Caspase-6 is 24.6 µM (active).
As to `CCCCN(C)CCN=C(S)Nc1ccc2nc(N3CCN(CC)CC3)cc(C)c2c1`, the AC50 in test [7] is 16.2 µM (active).
For `CC1CCCCN1CCNC(=O)c1cc2c(=O)n(C)c3ccccc3c2n1C` (configuration not stated), the IC50 in test [8] was > 20 µM (inactive). In addition, the AC50 in [7] was 33 µM (active).
In the case of `O=C(O)[C@@H]1[C@@H](CO)[C@@H]2Cn3c(ccc(/C=C/c4ccccc4)c3=O)[C@@H]2N1Cc1ccc2c(c1)OCO2`, the concentration at half-maximal activity (AC50) on Caspase-6 was 41.3 µM (active).
Consider `O=C(NN1C(=O)/C(=C/c2cccc(O)c2)SC1=S)c1ccccc1O`, for which the AC50 in test [6] was 66.2 µM (active).
Still for that read-out and setting: next, `COc1ccc(/C=C2\SC(=O)N(CC(=O)Nc3cccnc3)C2=O)cc1OC`: 32 µM (inactive).

(Values after ChEMBL document CHEMBL1201862, “PubChem BioAssay data set” (2004).)
